Laboratory results as given in patent US12168803B2, “Compositions and methods for screening and diagnosis of prostate cancer” (DANA-FARBER CANCER INSTITUTE, INC., priority 2015, dated 2024).

Legend:
LAPC4 cells [1] = details: LAPC4, upon docetaxel treatment
Text: (§1) To interrogate the differential sensitivity to docetaxel of prostate cancer cells, two prostate cancer cell lines, LNCaP and LAPC4, were compared.

LAPC4 cells [2] = experiment: Cell growth / viability (Trypan Blue exclusion) of LAPC4 cells; format: cell-based, human
Text: as §1
(§2) LNCaP-Abl cell line was provided by Zoran Culig (Innsbruck Medical University). LNCaP-C42 cell line was obtained from ViroMed Laboratories (Minneapolis). LNCaP-104R2 cell line was provided by Shutsung Liao (University of Chicago), and LAPC-4 cell line was provided by Charles Sawyers (Memorial Sloan Kettering Cancer Center). These cells were maintained with 10% fetal bovine serum (FBS) (LNCaP, LNCaP-C42, LMCaP-AI, VCAP, 22RV1, LAPC4, PC3, and DU145) or 10% charcoal-stripped serum (CSS) (LNCaP-Abl, and LNCaP-104R2) at 37 c in 5% CO2.

LNCaP cells = experiment: Cell growth / viability (Trypan Blue exclusion) of LNCaP cells; format: cell-based, human
Text: as §1, §2

[3] = tested on: metastatic castration-resistant prostate cancer (mCRPC); details: first-line; cited from earlier work
[4] = tested on: metastatic hormone sensitive prostate cancer (mHSPC); details: docetaxel given at the time of starting ADT for mHSPC; cited from earlier work
[5] = tested on: docetaxel-resistant prostate cancer; details: docetaxel-resistant patients; cited from earlier work

In the case of `C[C@]12CCC(=O)C[C@@H]1CC[C@@H]1[C@@H]2CC[C@]2(C)[C@@H](O)CC[C@@H]12` [DHT, dihydro-testosterone], the “effect of DHT on PARP cleavage” value (LAPC4 cells [1]) is reported as “specifically reduced”, the “impact of DHT treatment on docetaxel sensitivity” value (LAPC4 cells [2]; LAPC4) is reported as “dose-dependent” and the “effect of DHT on viability in docetaxel” value (LAPC4 cells [2]; LAPC4, 0.01 nM to 0.1 mM docetaxel, Trypan Blue exclusion) is reported as “markedly increased”. For the same molecule, the “effect of 10 nM DHT on cell growth in the presence of docetaxel” value (LAPC4 cells [2]; LAPC4, 10 nM docetaxel) was “restoration of cell growth” and the “effect of DHT on viability against docetaxel” value (LNCaP cells; LNCaP, 0.01 nM to 0.1 mM docetaxel, Trypan Blue exclusion) was “not significantly affected”.

In the case of `CC(=O)O[C@@]12CO[C@@H]1C[C@H](O)[C@@]1(C)C(=O)[C@H](O)C3=C(C)[C@@H](OC(=O)[C@H](O)[C@@H](NC(=O)OC(C)(C)C)c4ccccc4)C[C@@](O)([C@@H](OC(=O)c4ccccc4)[C@H]21)C3(C)C` [docetaxel], the “prolongation of median overall survival (OS) over mitoxantrone” value [3] is given as roughly 2 month, the OS [4] is given as 57 months and the “improvement of OS” value [4] is given as 13 months. The IC20 (LAPC4 cells [2]; Homo sapiens, LAPC4 cells, growth, read-out: IC20 concentration) was 5 nM, the “sensitivity of cells to docetaxel” value (LAPC4 cells [2]; LAPC4, 10 nM docetaxel, absence of DHT) was “sensitive” and the IC20 (LNCaP cells; Homo sapiens, LNCaP cells, growth, read-out: IC20 concentration) was 0.5 nM. For the same molecule, the “sensitivity of cells to docetaxel” value (LNCaP cells; LNCaP, 10 nM docetaxel, absence of DHT) was “sensitive”.

For `CO[C@H]1C(=O)[C@]2(C)[C@@H](OC)C[C@H]3OC[C@@]3(OC(C)=O)[C@H]2[C@H](OC(=O)c2ccccc2)[C@]2(O)C[C@H](OC(=O)[C@H](O)[C@@H](NC(=O)OC(C)(C)C)c3ccccc3)C(C)=C1C2(C)C` [cabazitaxel], the “improvement of median OS over mitoxantrone” value [5] is listed as 2.4 months and the “median OS” value [5] is listed as 15.1 months.

For `O=C1c2c(O)ccc(O)c2C(=O)c2c(NCCNCCO)ccc(NCCNCCO)c21` [mitoxantrone], the “median OS” value [5] is listed as 12.7 months.

With `CNC(=O)c1ccc(N2C(=S)N(c3ccc(C#N)c(C(F)(F)F)c3)C(=O)C2(C)C)cc1F` [enzalutamide] the “effect on viability of cells treated with docetaxel in DHT supplemented media” value (LAPC4 cells [2]; LAPC4) was “substantially reduced” and the “effect on docetaxel sensitivity in the presence of DHT” value (LAPC4 cells [2]; LAPC4, 10 nM docetaxel, DHT) was “resensitized the cells to docetaxel”.
